{"source": "the supplement of paper PMC10733146", "test_in_all_cases": "viability relative to DMSO control (fraction); higher = less drug effect (more viable cells)", "details_in_all_cases": "48 h", "key": {"[1]": {"system": "primary AML patient cells (S089)", "summary_of_the_method": "(§1)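 In 384-well plates with compounds pre-plated at five concentrations (one well per concentration), primary mononuclear tumour cells were plated at 4 × 10^4 cells per well. The cells came from blood or bone marrow by Ficoll isolation or from processed lymph node, and were used fresh or cryopreserved. Culture ran for 48 h at 37 °C and 5% CO2 in RPMI-1640 containing penicillin/streptomycin, L-glutamine and human serum. Viability was read as CellTiter-Glo luminescence, normalised to the median of 16 inner DMSO wells.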"}, "[2]": {"system": "primary AML patient cells (S072)", "summary_of_the_method": "as §1"}, "[3]": {"system": "primary MCL patient cells (S068)", "summary_of_the_method": "as §1"}, "[4]": {"system": "primary T-PLL patient cells (S008)", "summary_of_the_method": "as §1"}, "[5]": {"system": "primary FL patient cells (S087)", "summary_of_the_method": "as §1"}, "[6]": {"system": "primary AML patient cells (S009)", "summary_of_the_method": "as §1"}, "[7]": {"system": "primary AML patient cells (S037)", "summary_of_the_method": "as §1"}, "[8]": {"system": "primary MCL patient cells (S053)", "summary_of_the_method": "as §1"}, "[9]": {"system": "primary AML patient cells (S091)", "summary_of_the_method": "as §1"}, "[10]": {"system": "primary CLL patient cells (S031)", "summary_of_the_method": "as §1"}, "[11]": {"system": "primary AML patient cells (S056)", "summary_of_the_method": "as §1"}, "[12]": {"system": "primary AML patient cells (S079)", "summary_of_the_method": "as §1"}, "[13]": {"system": "primary AML patient cells (S055)", "summary_of_the_method": "as §1"}, "[14]": {"system": "primary AML patient cells (S006)", "summary_of_the_method": "as §1"}, "[15]": {"system": "primary ALL patient cells (S048)", "summary_of_the_method": "as §1"}, "[16]": {"system": "primary FL patient cells (S022)", "summary_of_the_method": "as §1"}, "[17]": {"system": "primary MCL patient cells (S041)", "summary_of_the_method": "as §1"}, "[18]": {"system": "primary DLBCL patient cells (S082)", "summary_of_the_method": "as §1"}, "[19]": {"system": "primary MCL patient cells (S063)", "summary_of_the_method": "as §1"}, "[20]": {"system": "primary AML patient cells (S012)", "summary_of_the_method": "as §1"}}}
{"smiles": "Nc1nc(Cl)nc2c1ncn2[C@@H]1O[C@H](CO)[C@@H](O)[C@@H]1F", "note": "[Clofarabine]", "values": [{"measurement": "viability", "setting": "[1]; 0.024 µM", "value": 0.851}, {"measurement": "viability", "setting": "[1]; 0.12 µM", "value": 0.737}, {"measurement": "viability", "setting": "[1]; 0.6 µM", "value": 0.506}, {"measurement": "viability", "setting": "[1]; 3 µM", "value": 0.461}, {"measurement": "viability", "setting": "[1]; 15 µM", "value": 0.327}, {"measurement": "viability", "setting": "[2]; 0.024 µM", "value": 0.863}, {"measurement": "viability", "setting": "[2]; 0.12 µM", "value": 0.762}, {"measurement": "viability", "setting": "[2]; 0.6 µM", "value": 0.587}, {"measurement": "viability", "setting": "[2]; 3 µM", "value": 0.521}, {"measurement": "viability", "setting": "[2]; 15 µM", "value": 0.407}, {"measurement": "viability", "setting": "[3]; 0.024 µM", "value": 0.522}, {"measurement": "viability", "setting": "[3]; 0.12 µM", "value": 0.301}, {"measurement": "viability", "setting": "[3]; 0.6 µM", "value": 0.203}, {"measurement": "viability", "setting": "[3]; 3 µM", "value": 0.156}, {"measurement": "viability", "setting": "[3]; 15 µM", "value": 0.128}, {"measurement": "viability", "setting": "[4]; 0.024 µM", "value": 0.989}, {"measurement": "viability", "setting": "[4]; 0.12 µM", "value": 0.864}, {"measurement": "viability", "setting": "[4]; 0.6 µM", "value": 0.64}, {"measurement": "viability", "setting": "[4]; 3 µM", "value": 0.562}, {"measurement": "viability", "setting": "[4]; 15 µM", "value": 0.551}, {"measurement": "viability", "setting": "[5]; 0.024 µM", "value": 0.823}, {"measurement": "viability", "setting": "[5]; 0.12 µM", "value": 0.673}, {"measurement": "viability", "setting": "[5]; 0.6 µM", "value": 0.587}, {"measurement": "viability", "setting": "[5]; 3 µM", "value": 0.536}, {"measurement": "viability", "setting": "[5]; 15 µM", "value": 0.547}, {"measurement": "viability", "setting": "[6]; 0.024 µM", "value": 0.585}, {"measurement": "viability", "setting": "[6]; 0.12 µM", "value": 0.541}, {"measurement": "viability", "setting": "[6]; 0.6 µM", "value": 0.391}, {"measurement": "viability", "setting": "[6]; 3 µM", "value": 0.381}, {"measurement": "viability", "setting": "[6]; 15 µM", "value": 0.258}, {"measurement": "viability", "setting": "[7]; 0.024 µM", "value": 1.01}, {"measurement": "viability", "setting": "[7]; 0.12 µM", "value": 0.834}, {"measurement": "viability", "setting": "[7]; 0.6 µM", "value": 0.656}, {"measurement": "viability", "setting": "[7]; 3 µM", "value": 0.651}, {"measurement": "viability", "setting": "[7]; 15 µM", "value": 0.627}, {"measurement": "viability", "setting": "[8]; 0.024 µM", "value": 0.492}, {"measurement": "viability", "setting": "[8]; 0.12 µM", "value": 0.356}, {"measurement": "viability", "setting": "[8]; 0.6 µM", "value": 0.266}, {"measurement": "viability", "setting": "[8]; 3 µM", "value": 0.255}, {"measurement": "viability", "setting": "[8]; 15 µM", "value": 0.211}, {"measurement": "viability", "setting": "[9]; 0.024 µM", "value": 0.661}, {"measurement": "viability", "setting": "[9]; 0.12 µM", "value": 0.527}, {"measurement": "viability", "setting": "[9]; 0.6 µM", "value": 0.482}, {"measurement": "viability", "setting": "[9]; 3 µM", "value": 0.459}, {"measurement": "viability", "setting": "[9]; 15 µM", "value": 0.425}, {"measurement": "viability", "setting": "[10]; 0.024 µM", "value": 0.424}, {"measurement": "viability", "setting": "[10]; 0.12 µM", "value": 0.0924}, {"measurement": "viability", "setting": "[10]; 0.6 µM", "value": 0.0411}, {"measurement": "viability", "setting": "[10]; 3 µM", "value": 0.0349}, {"measurement": "viability", "setting": "[10]; 15 µM", "value": 0.0384}, {"measurement": "viability", "setting": "[11]; 0.024 µM", "value": 1}, {"measurement": "viability", "setting": "[11]; 0.12 µM", "value": 0.413}, {"measurement": "viability", "setting": "[11]; 0.6 µM", "value": 0.288}, {"measurement": "viability", "setting": "[11]; 3 µM", "value": 0.277}, {"measurement": "viability", "setting": "[11]; 15 µM", "value": 0.303}, {"measurement": "viability", "setting": "[12]; 0.024 µM", "value": 0.804}, {"measurement": "viability", "setting": "[12]; 0.12 µM", "value": 0.512}, {"measurement": "viability", "setting": "[12]; 0.6 µM", "value": 0.285}, {"measurement": "viability", "setting": "[12]; 3 µM", "value": 0.139}, {"measurement": "viability", "setting": "[12]; 15 µM", "value": 0.0818}, {"measurement": "viability", "setting": "[13]; 0.024 µM", "value": 0.951}, {"measurement": "viability", "setting": "[13]; 0.12 µM", "value": 0.792}, {"measurement": "viability", "setting": "[13]; 0.6 µM", "value": 0.677}, {"measurement": "viability", "setting": "[13]; 3 µM", "value": 0.507}, {"measurement": "viability", "setting": "[13]; 15 µM", "value": 0.446}, {"measurement": "viability", "setting": "[14]; 0.024 µM", "value": 0.759}, {"measurement": "viability", "setting": "[14]; 0.12 µM", "value": 0.381}, {"measurement": "viability", "setting": "[14]; 0.6 µM", "value": 0.351}, {"measurement": "viability", "setting": "[14]; 3 µM", "value": 0.461}, {"measurement": "viability", "setting": "[14]; 15 µM", "value": 0.489}, {"measurement": "viability", "setting": "[15]; 0.024 µM", "value": 0.345}, {"measurement": "viability", "setting": "[15]; 0.12 µM", "value": 0.0686}, {"measurement": "viability", "setting": "[15]; 0.6 µM", "value": 0.0335}, {"measurement": "viability", "setting": "[15]; 3 µM", "value": 0.0271}, {"measurement": "viability", "setting": "[15]; 15 µM", "value": 0.0269}, {"measurement": "viability", "setting": "[16]; 0.024 µM", "value": 0.817}, {"measurement": "viability", "setting": "[16]; 0.12 µM", "value": 0.643}, {"measurement": "viability", "setting": "[16]; 0.6 µM", "value": 0.457}, {"measurement": "viability", "setting": "[16]; 3 µM", "value": 0.306}, {"measurement": "viability", "setting": "[16]; 15 µM", "value": 0.256}, {"measurement": "viability", "setting": "[17]; 0.024 µM", "value": 0.862}, {"measurement": "viability", "setting": "[17]; 0.12 µM", "value": 0.254}, {"measurement": "viability", "setting": "[17]; 0.6 µM", "value": 0.0698}, {"measurement": "viability", "setting": "[17]; 3 µM", "value": 0.0397}, {"measurement": "viability", "setting": "[17]; 15 µM", "value": 0.0361}, {"measurement": "viability", "setting": "[18]; 0.024 µM", "value": 0.834}, {"measurement": "viability", "setting": "[18]; 0.12 µM", "value": 0.53}, {"measurement": "viability", "setting": "[18]; 0.6 µM", "value": 0.377}, {"measurement": "viability", "setting": "[18]; 3 µM", "value": 0.362}, {"measurement": "viability", "setting": "[18]; 15 µM", "value": 0.319}, {"measurement": "viability", "setting": "[19]; 0.024 µM", "value": 0.912}, {"measurement": "viability", "setting": "[19]; 0.12 µM", "value": 0.736}, {"measurement": "viability", "setting": "[19]; 0.6 µM", "value": 0.245}, {"measurement": "viability", "setting": "[19]; 3 µM", "value": 0.0814}, {"measurement": "viability", "setting": "[19]; 15 µM", "value": 0.0383}, {"measurement": "viability", "setting": "[20]; 0.024 µM", "value": 0.956}, {"measurement": "viability", "setting": "[20]; 0.12 µM", "value": 0.826}, {"measurement": "viability", "setting": "[20]; 0.6 µM", "value": 0.459}, {"measurement": "viability", "setting": "[20]; 3 µM", "value": 0.276}, {"measurement": "viability", "setting": "[20]; 15 µM", "value": 0.136}]}
